From patent US10351548B2, “2-oxo-1,2-dihydropyridine-3-carboxamide compounds and their use as inhibitors of PDK1” (INTERNATIONAL SOCIETY FOR DRUG DEVELOPMENT S.R.L., priority 2015, dated 2019)
Where two headings read alike, the source gives them in different places.

What was measured:
CAMK2A (CaMKII alpha) = CAMK2A (CaMKII alpha) (Homo sapiens (Human), UniProt Q9UQM7); assay: IB35 kinases profiling at 100 nM (ZLYTE); type: biochemical; conditions: IB35 100 nM, ATP Km app
Excerpt: (§1) The results are reported below

CDK5/p25 = CDK5/p25 (Homo sapiens (Human), UniProt Q00535); assay: IB35 kinases profiling at 100 nM (ZLYTE); type: biochemical; conditions: IB35 100 nM, ATP Km app
CDK5/p25, sequence (Q00535 whole entry): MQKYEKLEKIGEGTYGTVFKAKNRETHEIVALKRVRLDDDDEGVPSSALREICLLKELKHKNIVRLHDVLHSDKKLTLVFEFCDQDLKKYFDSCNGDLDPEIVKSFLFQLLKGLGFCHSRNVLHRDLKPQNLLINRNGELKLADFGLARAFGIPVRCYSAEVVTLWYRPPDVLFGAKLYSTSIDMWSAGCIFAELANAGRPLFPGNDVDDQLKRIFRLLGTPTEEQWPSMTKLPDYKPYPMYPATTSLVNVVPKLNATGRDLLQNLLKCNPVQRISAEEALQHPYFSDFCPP
CDK5/p25, sequence (Q15078 99-307 partner): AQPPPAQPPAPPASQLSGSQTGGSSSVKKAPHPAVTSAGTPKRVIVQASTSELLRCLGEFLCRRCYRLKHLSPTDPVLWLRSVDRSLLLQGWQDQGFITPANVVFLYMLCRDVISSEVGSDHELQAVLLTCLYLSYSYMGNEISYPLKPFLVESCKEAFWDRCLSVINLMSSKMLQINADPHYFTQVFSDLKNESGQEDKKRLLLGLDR
Excerpt: as §1

AKT3 (PKB gamma) = AKT3 (PKB gamma) (Homo sapiens (Human), UniProt Q9Y243); assay: IB35 kinases profiling at 100 nM (ZLYTE); type: biochemical; conditions: IB35 100 nM, ATP Km app
Excerpt: as §1

AURKA (Aurora A) = AURKA (Aurora A) (Homo sapiens (Human), UniProt O14965); assay: IB35 kinases profiling at 100 nM (ZLYTE); type: biochemical; conditions: IB35 100 nM, ATP Km app
Excerpt: as §1

FRAP1 (mTOR) = FRAP1 (mTOR) (Homo sapiens (Human), UniProt P42345); assay: IB35 kinases profiling at 100 nM (ZLYTE); type: biochemical; conditions: IB35 100 nM, ATP Km app
Excerpt: as §1

CSNK1G1 (CK1 gamma 1) = CSNK1G1 (CK1 gamma 1) (Homo sapiens (Human), UniProt Q9HCP0); assay: IB35 kinases profiling at 100 nM (ZLYTE); type: biochemical; conditions: IB35 100 nM, ATP Km app
CSNK1G1 (CK1 gamma 1), sequence (Q9HCP0 whole entry, species assumed): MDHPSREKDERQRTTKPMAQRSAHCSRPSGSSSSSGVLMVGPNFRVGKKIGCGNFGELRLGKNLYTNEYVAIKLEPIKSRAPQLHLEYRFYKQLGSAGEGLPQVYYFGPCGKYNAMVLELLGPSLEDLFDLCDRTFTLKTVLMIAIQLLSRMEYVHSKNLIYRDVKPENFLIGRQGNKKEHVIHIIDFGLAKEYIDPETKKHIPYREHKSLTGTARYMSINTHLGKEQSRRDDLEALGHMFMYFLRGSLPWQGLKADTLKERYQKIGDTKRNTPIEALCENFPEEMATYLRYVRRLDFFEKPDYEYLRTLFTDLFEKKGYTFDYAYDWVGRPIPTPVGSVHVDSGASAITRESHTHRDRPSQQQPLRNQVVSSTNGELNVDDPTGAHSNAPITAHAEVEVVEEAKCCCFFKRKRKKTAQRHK
Excerpt: as §1

ROCK1 = ROCK1 (Homo sapiens (Human), UniProt Q13464); assay: IB35 kinases profiling at 100 nM (ZLYTE); type: biochemical; conditions: IB35 100 nM, ATP Km app
Excerpt: as §1

CLK1 = CLK1 (Homo sapiens (Human), UniProt P49759); assay: IB35 kinases profiling at 100 nM (ZLYTE); type: biochemical; conditions: IB35 100 nM, ATP Km app
Excerpt: as §1

CDK5/p35 = CDK5/p35 (Homo sapiens (Human), UniProt Q00535); assay: IB35 kinases profiling at 100 nM (ZLYTE); type: biochemical; conditions: IB35 100 nM, ATP Km app
Excerpt: as §1

PI4KB (PI4K beta) = PI4KB (PI4K beta) (Homo sapiens (Human), UniProt Q9UBF8); assay: IB35 kinases profiling at 100 nM (Adapta); type: biochemical; conditions: IB35 100 nM, ATP Km app
Excerpt: as §1

[1] = biological target: PIK3CA/PIK3R1 (p110 alpha/p85 alpha) (Homo sapiens (Human), UniProt P42336); assay: IB35 kinases profiling at 100 nM (Adapta); type: biochemical; conditions: IB35 100 nM, ATP Km app
Excerpt: as §1

CDK7/cyclin H/MNAT1 = CDK7/cyclin H/MNAT1 (Homo sapiens (Human), UniProt P50613); assay: IB35 kinases profiling at 100 nM (Adapta); type: biochemical; conditions: IB35 100 nM, ATP Km app
CDK7/cyclin H/MNAT1, sequence (P50613 whole entry): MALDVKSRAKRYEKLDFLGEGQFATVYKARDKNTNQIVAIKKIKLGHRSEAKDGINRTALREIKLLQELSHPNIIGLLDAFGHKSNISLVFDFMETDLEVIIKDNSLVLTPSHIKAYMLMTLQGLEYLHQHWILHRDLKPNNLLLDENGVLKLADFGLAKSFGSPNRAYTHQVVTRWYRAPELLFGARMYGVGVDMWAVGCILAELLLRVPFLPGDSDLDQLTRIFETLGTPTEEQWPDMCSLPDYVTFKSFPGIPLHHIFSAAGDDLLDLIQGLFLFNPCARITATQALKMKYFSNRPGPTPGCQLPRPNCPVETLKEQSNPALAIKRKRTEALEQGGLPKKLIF
CDK7/cyclin H/MNAT1, sequence (P51946 whole entry partner): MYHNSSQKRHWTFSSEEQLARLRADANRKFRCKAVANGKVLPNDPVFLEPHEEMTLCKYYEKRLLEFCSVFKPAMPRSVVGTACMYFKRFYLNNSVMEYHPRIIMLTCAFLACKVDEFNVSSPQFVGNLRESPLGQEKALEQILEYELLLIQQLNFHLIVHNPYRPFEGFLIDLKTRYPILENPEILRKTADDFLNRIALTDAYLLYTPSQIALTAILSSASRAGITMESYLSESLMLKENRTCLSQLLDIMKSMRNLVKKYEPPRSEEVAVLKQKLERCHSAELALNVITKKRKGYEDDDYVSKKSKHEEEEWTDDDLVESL
CDK7/cyclin H/MNAT1, sequence (P51948 whole entry partner): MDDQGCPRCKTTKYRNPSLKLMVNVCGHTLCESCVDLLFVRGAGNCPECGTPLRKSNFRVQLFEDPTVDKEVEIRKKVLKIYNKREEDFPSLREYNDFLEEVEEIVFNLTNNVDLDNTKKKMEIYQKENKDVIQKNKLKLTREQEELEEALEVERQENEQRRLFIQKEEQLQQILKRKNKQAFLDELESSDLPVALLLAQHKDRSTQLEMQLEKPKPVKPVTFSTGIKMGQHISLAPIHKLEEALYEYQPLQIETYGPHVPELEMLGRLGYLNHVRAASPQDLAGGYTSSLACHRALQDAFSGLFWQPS
Excerpt: as §1

CDK9/cyclin T1 = CDK9/cyclin T1 (Homo sapiens (Human), UniProt P50750); assay: IB35 kinases profiling at 100 nM (Adapta); type: biochemical; conditions: IB35 100 nM, ATP Km app
CDK9/cyclin T1, sequence (P50750 whole entry): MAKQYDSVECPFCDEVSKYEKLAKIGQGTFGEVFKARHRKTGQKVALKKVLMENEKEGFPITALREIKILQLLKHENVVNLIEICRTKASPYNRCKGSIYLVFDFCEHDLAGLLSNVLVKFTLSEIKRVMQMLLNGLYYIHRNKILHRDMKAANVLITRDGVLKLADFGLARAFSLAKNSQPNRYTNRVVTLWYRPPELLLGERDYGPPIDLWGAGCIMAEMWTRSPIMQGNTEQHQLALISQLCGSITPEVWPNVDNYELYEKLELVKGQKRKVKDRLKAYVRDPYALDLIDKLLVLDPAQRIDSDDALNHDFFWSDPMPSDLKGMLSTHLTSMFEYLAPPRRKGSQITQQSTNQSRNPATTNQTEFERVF
CDK9/cyclin T1, sequence (O60563 whole entry partner): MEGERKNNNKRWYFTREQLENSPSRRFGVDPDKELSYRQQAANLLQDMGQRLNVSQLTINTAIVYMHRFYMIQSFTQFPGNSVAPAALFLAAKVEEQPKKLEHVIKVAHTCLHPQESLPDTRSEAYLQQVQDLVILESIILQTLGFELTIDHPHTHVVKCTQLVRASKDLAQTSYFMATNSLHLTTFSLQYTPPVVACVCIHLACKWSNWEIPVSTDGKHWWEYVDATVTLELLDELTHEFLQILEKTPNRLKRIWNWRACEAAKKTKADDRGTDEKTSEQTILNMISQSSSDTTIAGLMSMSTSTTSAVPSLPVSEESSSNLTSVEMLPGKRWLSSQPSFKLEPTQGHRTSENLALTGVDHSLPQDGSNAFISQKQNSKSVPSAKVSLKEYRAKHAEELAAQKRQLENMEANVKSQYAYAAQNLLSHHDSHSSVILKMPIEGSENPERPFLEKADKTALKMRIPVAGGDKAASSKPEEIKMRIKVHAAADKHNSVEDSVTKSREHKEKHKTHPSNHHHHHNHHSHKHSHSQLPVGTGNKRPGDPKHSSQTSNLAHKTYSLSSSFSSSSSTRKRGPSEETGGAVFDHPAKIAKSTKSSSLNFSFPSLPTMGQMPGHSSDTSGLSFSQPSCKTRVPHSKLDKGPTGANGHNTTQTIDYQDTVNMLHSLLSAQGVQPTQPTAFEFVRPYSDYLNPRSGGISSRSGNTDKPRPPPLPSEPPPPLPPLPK
Excerpt: as §1

PIK3CG (p110 gamma) = PIK3CG (p110 gamma) (Homo sapiens (Human), UniProt P48736); assay: IB35 kinases profiling at 100 nM (Adapta); type: biochemical; conditions: IB35 100 nM, ATP Km app
Excerpt: as §1

CHUK (IKK alpha) = CHUK (IKK alpha) (Homo sapiens (Human), UniProt O15111); assay: IB35 kinases profiling at 100 nM (Adapta); type: biochemical; conditions: IB35 100 nM, ATP Km app
Excerpt: as §1

[2] = biological target: PIK3CD/PIK3R1 (p110 delta/p85 alpha) (Homo sapiens (Human), UniProt O00329); assay: IB35 kinases profiling at 100 nM (Adapta); type: biochemical; conditions: IB35 100 nM, ATP Km app
PIK3CD/PIK3R1 (p110 delta/p85 alpha), sequence (O00329 whole entry): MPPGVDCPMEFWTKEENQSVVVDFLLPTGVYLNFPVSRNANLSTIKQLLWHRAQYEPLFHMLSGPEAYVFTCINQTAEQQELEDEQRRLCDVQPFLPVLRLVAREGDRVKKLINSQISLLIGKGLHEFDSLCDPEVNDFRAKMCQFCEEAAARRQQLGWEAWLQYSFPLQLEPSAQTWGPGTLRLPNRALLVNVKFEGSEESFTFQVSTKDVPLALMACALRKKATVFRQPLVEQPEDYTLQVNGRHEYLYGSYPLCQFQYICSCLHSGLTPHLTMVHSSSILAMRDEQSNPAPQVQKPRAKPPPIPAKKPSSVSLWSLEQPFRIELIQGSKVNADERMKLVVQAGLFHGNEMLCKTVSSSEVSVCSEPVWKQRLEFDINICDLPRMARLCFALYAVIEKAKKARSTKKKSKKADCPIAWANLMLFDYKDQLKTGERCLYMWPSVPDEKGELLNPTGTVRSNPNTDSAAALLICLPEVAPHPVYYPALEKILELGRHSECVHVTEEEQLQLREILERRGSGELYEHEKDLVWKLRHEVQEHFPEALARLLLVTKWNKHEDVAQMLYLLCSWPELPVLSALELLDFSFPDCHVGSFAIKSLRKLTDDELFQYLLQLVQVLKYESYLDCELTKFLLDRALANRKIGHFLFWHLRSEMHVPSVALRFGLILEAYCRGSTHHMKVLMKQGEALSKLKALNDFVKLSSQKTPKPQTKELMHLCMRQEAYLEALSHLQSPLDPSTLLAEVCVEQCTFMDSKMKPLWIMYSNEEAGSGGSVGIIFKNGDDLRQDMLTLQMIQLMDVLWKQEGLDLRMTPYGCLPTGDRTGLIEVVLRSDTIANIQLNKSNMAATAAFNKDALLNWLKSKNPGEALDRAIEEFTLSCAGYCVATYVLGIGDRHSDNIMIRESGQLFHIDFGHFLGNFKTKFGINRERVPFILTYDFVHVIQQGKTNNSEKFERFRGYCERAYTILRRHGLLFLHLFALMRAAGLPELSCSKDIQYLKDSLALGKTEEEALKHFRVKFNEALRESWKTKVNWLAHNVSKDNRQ
PIK3CD/PIK3R1 (p110 delta/p85 alpha), sequence (P27986 whole entry partner): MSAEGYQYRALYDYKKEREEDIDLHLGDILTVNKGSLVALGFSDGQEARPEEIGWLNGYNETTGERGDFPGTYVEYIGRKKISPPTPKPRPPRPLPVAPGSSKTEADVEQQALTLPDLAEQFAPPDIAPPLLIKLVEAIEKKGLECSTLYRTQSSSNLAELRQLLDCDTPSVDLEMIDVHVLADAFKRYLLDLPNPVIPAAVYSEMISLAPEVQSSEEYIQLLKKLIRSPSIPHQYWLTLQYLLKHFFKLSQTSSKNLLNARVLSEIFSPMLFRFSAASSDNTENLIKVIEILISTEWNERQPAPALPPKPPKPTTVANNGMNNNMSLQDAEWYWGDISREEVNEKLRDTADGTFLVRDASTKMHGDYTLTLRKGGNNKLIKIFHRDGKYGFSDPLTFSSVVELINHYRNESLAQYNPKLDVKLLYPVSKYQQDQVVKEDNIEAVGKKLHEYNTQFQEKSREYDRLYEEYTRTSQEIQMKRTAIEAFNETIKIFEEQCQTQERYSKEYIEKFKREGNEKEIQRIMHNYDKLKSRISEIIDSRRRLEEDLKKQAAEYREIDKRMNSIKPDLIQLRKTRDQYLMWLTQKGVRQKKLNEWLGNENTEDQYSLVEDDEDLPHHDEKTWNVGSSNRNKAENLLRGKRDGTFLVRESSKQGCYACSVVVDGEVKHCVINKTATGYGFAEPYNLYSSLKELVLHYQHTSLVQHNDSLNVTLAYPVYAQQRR
Excerpt: as §1

[3] = tested on: GSCs isolated from U87MG cells; assay: Annexin V and 7-AAD staining in GSCs (apoptosis); type: cell-based, human; conditions: 10 μM, 7 days
Experimental: Dual staining with Annexin V coniugated to fluorescein-isothiocyanate (FITC) and 7-amino-actinomysin (7-AAD) was performed using the commercially available kit (Muse Annexin V and Dead Cell Kit; Merck KGaA, Darmstadt, Germany). U87MG cells or GSCs were treated with DMSO (control), SA16, SA23 or IB35 for 72 h or seven days, respectively. At the end of the treatment periods, the percentages of living, apoptotic and dead cells were acquired and analysed by Muse™ Cell Analyzer as previously described (Daniele, S., et al., Combined inhibition of AKT/mTOR and MDM2 enhances Glioblastoma Multiforme cell apoptosis and differentiation of cancer stem cells. Sci. Rep., 2015. 5.).
It was investigated if the reduction of cell proliferation elicited by the two compounds could be associated to cell apoptosis. […] At the end of treatments, the cells were collected and the degree of phosphatidylserine externalisation was evaluated using the Annexin V protocol, as above described (FIG. 10). The data were expressed as the percentage of apoptotic cells (early-apoptotic in white, late-apoptotic/necrotic in grey) relative to the total number of cells and represented in FIG. 11. […] The significance of the differences was determined with a one-way ANOVA with Bonferroni post-test (*** p<0.001 vs. control).

## O=C(CNC(=O)c1cccn(Cc2ccc(F)c(F)c2)c1=O)Nc1ccc2c(c1)/C(=C/c1cnc[nH]1)C(=O)N2 [IB35, (Z)—N-(2-((3-((1H-imidazol-5-yl)methylene)-2-oxoindolin-5-yl)amino)-2-oxoethyl)-1-(3,4-difluorobenzyl)-2-oxo-1,2-dihydro pyridine-3-carboxamide]
CAMK2A (CaMKII alpha); read-out: % Inhibition 1
  inhibition at 0.1 µM: -1%
CAMK2A (CaMKII alpha); read-out: % Inhibition 2
  inhibition at 0.1 µM: 2%
CAMK2A (CaMKII alpha); read-out: % Inhibition Avg
  inhibition at 0.1 µM: 0%
CDK5/p25; read-out: % Inhibition 1
  inhibition at 0.1 µM: -7%
CDK5/p25; read-out: % Inhibition 2
  inhibition at 0.1 µM: -10%
CDK5/p25; read-out: % Inhibition Avg
  inhibition at 0.1 µM: -8%
AKT3 (PKB gamma); read-out: % Inhibition 1
  inhibition at 0.1 µM: 3%
AKT3 (PKB gamma); read-out: % Inhibition 2
  inhibition at 0.1 µM: 1%
AKT3 (PKB gamma); read-out: % Inhibition Avg
  inhibition at 0.1 µM: 2%
AURKA (Aurora A); read-out: % Inhibition 1
  inhibition at 0.1 µM: 37%
AURKA (Aurora A); read-out: % Inhibition 2
  inhibition at 0.1 µM: 38%
AURKA (Aurora A); read-out: % Inhibition Avg
  inhibition at 0.1 µM: 38%
FRAP1 (mTOR); read-out: % Inhibition 1
  inhibition at 0.1 µM: -10%
FRAP1 (mTOR); read-out: % Inhibition 2
  inhibition at 0.1 µM: -18%
FRAP1 (mTOR); read-out: % Inhibition Avg
  inhibition at 0.1 µM: -14%
CSNK1G1 (CK1 gamma 1); read-out: % Inhibition 1
  inhibition at 0.1 µM: 3%
CSNK1G1 (CK1 gamma 1); read-out: % Inhibition 2
  inhibition at 0.1 µM: 2%
CSNK1G1 (CK1 gamma 1); read-out: % Inhibition Avg
  inhibition at 0.1 µM: 3%
ROCK1; read-out: % Inhibition 1
  inhibition at 0.1 µM: -9%
ROCK1; read-out: % Inhibition 2
  inhibition at 0.1 µM: -6%
ROCK1; read-out: % Inhibition Avg
  inhibition at 0.1 µM: -7%
CLK1; read-out: % Inhibition 1
  inhibition at 0.1 µM: 4%
CLK1; read-out: % Inhibition 2
  inhibition at 0.1 µM: -7%
CLK1; read-out: % Inhibition Avg
  inhibition at 0.1 µM: -2%
CDK5/p35; read-out: % Inhibition 1
  inhibition at 0.1 µM: -2%
CDK5/p35; read-out: % Inhibition 2
  inhibition at 0.1 µM: 6%
CDK5/p35; read-out: % Inhibition Avg
  inhibition at 0.1 µM: 2%
PI4KB (PI4K beta); read-out: % Inhibition 1
  inhibition at 0.1 µM: -3%
PI4KB (PI4K beta); read-out: % Inhibition 2
  inhibition at 0.1 µM: 12%
PI4KB (PI4K beta); read-out: % Inhibition Avg
  inhibition at 0.1 µM: 4%
[1]; read-out: % Inhibition 1
  inhibition at 0.1 µM: 16%
[1]; read-out: % Inhibition 2
  inhibition at 0.1 µM: 24%
[1]; read-out: % Inhibition Avg
  inhibition at 0.1 µM: 20%
CDK7/cyclin H/MNAT1; read-out: % Inhibition 1
  inhibition at 0.1 µM: 2%
CDK7/cyclin H/MNAT1; read-out: % Inhibition 2
  inhibition at 0.1 µM: -1%
CDK7/cyclin H/MNAT1; read-out: % Inhibition Avg
  inhibition at 0.1 µM: 1%
CDK9/cyclin T1; read-out: % Inhibition 1
  inhibition at 0.1 µM: 7%
CDK9/cyclin T1; read-out: % Inhibition 2
  inhibition at 0.1 µM: 5%
CDK9/cyclin T1; read-out: % Inhibition Avg
  inhibition at 0.1 µM: 6%
PIK3CG (p110 gamma); read-out: % Inhibition 1
  inhibition at 0.1 µM: 6%
PIK3CG (p110 gamma); read-out: % Inhibition 2
  inhibition at 0.1 µM: -1%
PIK3CG (p110 gamma); read-out: % Inhibition Avg
  inhibition at 0.1 µM: 2%
CHUK (IKK alpha); read-out: % Inhibition 1
  inhibition at 0.1 µM: -2%
CHUK (IKK alpha); read-out: % Inhibition 2
  inhibition at 0.1 µM: 7%
CHUK (IKK alpha); read-out: % Inhibition Avg
  inhibition at 0.1 µM: 3%
[2]; read-out: % Inhibition 1
  inhibition at 0.1 µM: 13%
[2]; read-out: % Inhibition 2
  inhibition at 0.1 µM: 21%
[2]; read-out: % Inhibition Avg
  inhibition at 0.1 µM: 17%
[3]
  percentage of total apoptotic cells: 38.5±3.9%
